The subject of the assay is P388. Kind of assay: Cytotoxicity against mouse P388 cells. Type of assay: functional. The conditions noted are these: read-out: ED50 (the source's name).

Converted amounts (≈) assume the structure as drawn. Where a SMILES comes first, the peptide text is derived from it. [ ]: non-standard residue; d: D form. Met(O) = CS(=O)CC[C@H](N)C(=O)O

Regarding `CC[C@H](C)[C@@H]1NC(=O)[C@H](C)NC(=O)[C@H](CC[S+](C)[O-])NC(=O)[C@H](C)NC(=O)[C@H](CC(=O)OC)NC(=O)[C@H](Cc2ccccc2)NC(=O)[C@@H]2CCCN2C1=O` (stereo partly specified) [PHAKELLISTATIN 14] (cyclo(AIPFD(OMe)A[Met(O)])), the EC50 was found to be 5 µg/mL (≈ 6.44 µM).
